In patent US11028084B2, “Selective inhibitors of gentotoxic steress-induced IKK/NF-κB pathways” (Max-Delbrück-Centrum für Molekulare Medizin in der …, priority 2016, dated 2021):
pIC50: −log10 of the molar value. “Also recorded” adds a separate entry of the source.

What was measured:
[1] = system: HEK293 cells; assay: Percentage of viable cells, annexin V / propidium-iodide exclusion, flow cytometry, HEK293 cells; assay type: cell-based, human
Method: (§1) FIG. 16: (A) U2OS cells were pre-treated with DMSO or MW01 and irradiated. Cells were lysed 8 h post γ-IR and were used for western blotting and immunochemical staining. (B) HEK293 cells were pre-treated with DMSO or MW01 and irradiated. After 48 h cells were fixed and stained with crystal violet. Dissolved crystal violet was used for absorbance measurement in a visible light spectrophotometer at a wavelength of 595 nm. (C) HEK293 cells were pre-treated with DMSO or MW01 and irradiated. The percentage of viable cells within the population was calculated by exclusion of annexin V and propidium-iodide positive cells measured by flow cytometry. (D) MEF cells were pre-treated with DMSO or MW01 and irradiated. Cells were used for annexin V staining 24 h and 48 after γ-IR. Percentage of annexin V positive cell population was analysed using a flow cytometer. (E) Experiment done as shown in (D) but with HT1080 cells processed 8 h after irradiation. Statistical significance was calculated using students t-test.
Cells were washed with ice-cold PBS and detached from growing dishes using Trypsin/EDTA solution. Detached cells were centrifuged at 300×g for 5 min. Detection of early apoptotic cells was performed by staining with annexin V-FITC antibody according to manufacturer's instructions (eBioscience Annexin V-FITC Apoptosis detection Kit). […]

[2] = system: ATM substrate histone H2AX; assay: Phospho-H2AX immunofluorescence after etoposide, U2OS cells; assay type: cell-based, human; settings: after etoposide treatment
Method: (§2) FIG. 2: U2OS cells were pre-treated and incubated with DMSO or MW01. DNA damage was induced by administration of etoposide. After 2 h cells were fixed, nuclei were stained with DAPI. p65 and phospho-H2AX, which is indicative for DNA DSB, were stained by immunofluorescence. Images were taken at a confocal Zeiss 710 LSM with a 40× oil objective.

[3] = target: T1, ATM (Homo sapiens, UniProt Q13315); assay: Enzymatic activity of ATM in γ-irradiated HepG2 cells, WB of ATM and substrate phosphorylation; assay type: cell-based
T1 construct: endogenous in cells; host or cells: HepG2
Method: FIG. 9: HepG2 cells were pre-incubated with DMSO, MW01 (5 μM) or the ATM inhibitor Ku55933 (10 μM) and irradiated. After 60 min cells were harvested and processed. Immunochemical staining of Western blotting membranes was done using indicated antibodies.

[4] = system: HT1080 cells; assay: Annexin V staining, flow cytometry, HT1080 cells; assay type: cell-based; settings: HT1080, 10 Gy
Method: as §1
Cells were washed with ice-cold PBS and detached from growing dishes using Trypsin/EDTA solution. Detached cells were centrifuged at 300×g for 5 min. […]
In addition, the sensitising effect of NF-κB inhibition was tested in HT1080 cells. After pre-treatment with DMSO or MW01, cells were irradiated with a dose of 10 Gy and analysed by annexin V staining.

[5] = system: U2OS cells; assay: Caspase-3-dependent cleavage of PARP1, WB, U2OS cells; assay type: cell-based, human
Method: as §1

[6] = system: genotoxic stress-induced NF-κB signaling; assay: Etoposide-induced p65 nuclear translocation, immunofluorescence / high content screening in U2OS cells; assay type: cell-based, human
Method: as §2
FIG. 3: (A) U2OS cells were pre-treated with increasing concentrations of MW01 in duplicates in a 384 well plate. Then, cells were treated with etoposide, fixed and subjected to IF of p65. Spatial measurement of p65 cytosolic and nuclear localisation was used for calculation of p65 translocation rates. (B) U2OS cells were pre-treated with DMSO, MW01 and irradiated with γ-IR. After 90 min cells were lysed and subjected to SDS-PAGE/WB and EMSA. (C) Cells were pre-treated with different concentrations of MW01 as indicated, treated with γ-IR (C) or etoposide (D) and subjected to WB or EMSA, respectively. LDH in (C) represents the loading control.
Genotoxic stress was applied by ionizing irradiation of cells with a Cs137 source (0629 Irradiator, STS Braunschweig), or by inhibition of the topoisomerase II enzyme by administration of etoposide at concentrations between 20-50 μM for 2 h.
For immunofluorescence staining 0.95×10^5 cells were seeded in 6 well plates onto autoclaved cover slips. Cellular confluency dictated to beginning of the experiment (2-3 days from seeding). After conduction of experiments cells were washed with PBS and fixed with 4% PFA/double-distilled H2O (ddH2O) for 10 min at RT. Following two additional washing steps cells were incubated with a solution containing 0.12% glycine/0.2% saponin in PBS for 10 min and then blocked with a solution containing 10% FCS/0.2% saponin in PBS for 1 h. Primary antibody incubation was performed overnight at 4° C. (1:500 diluted in 0.2% saponin in PBS). The next day, cover slips were washed five times with a solution containing 0.2% saponin in PBS. Fluorophor-coupled secondary antibodies (1:1000 diluted in 0.2% saponin in PBS) were incubated for 1 h (hour) at RT. Nuclei were stained using 0.2 mg/ml DAPI in PBS for […] or by directly mounting with DAPI/Mowiol. Finally, the cover slips were washed five times with 0.2% saponin in PBS and two times with ddH2O. Confocal microscopy was performed using a Zeiss 710 LSM with a 40× or a 63× oil objective.
In order to identify specific inhibitors of the DNA damage-induced NF-κB pathway, a differential screening assay was designed. The primary screening for inhibitors of genotoxic stress-induced NF-κB signaling utilised a library of compounds from ChemBioNet and donated compounds of academic chemists. DNA damage was applied by application of etoposide. All compounds which inhibited p65 nuclear translocation were taken for subsequent counter screening. For the counter screening administration of TNFα was used to induce canonical NF-κB signaling. All substances inhibiting TNFα-induced canonical NF-κB activation were discarded from the list of potential DNA damage-pathway specific substances.

[7] = system: DNA repair mechanisms; assay: γH2AX foci per nucleus, immunofluorescence, U2OS cells; assay type: cell-based, human; settings: 5 μM, untreated (non-irradiated) cells, 5 hours
Method: FIG. 17: U2OS cells grown on coverslips were incubated 30 min with DMSO or MW01 (5 μM). Then, cells were γ-irradiated (5 Gy) or mock irradiated (mock IR). After 5 hours, cells were fixed and subjected to immunofluorescence staining procedure. DNA damage-indicating γH2AX foci and nuclei n≥480 nuclei per condition) were counted for the calculation of average foci per nucleus. Significance was calculated using student's t-test.
U2OS cells were grown on coverslips and incubated 30 min with DMSO or MW01 (5 μM). Then, cells were γ-irradiated (5 Gy) or mock irradiated (mock IR). After 5 hours, cells were fixed and subjected to immunofluorescence staining procedure. DNA damage-indicating γH2AX foci and nuclei (n≥480 nuclei per condition) were counted for the calculation of average foci per nucleus. Significance was calculated using student's t-test.

[8] = HepG2, γ-irradiation, 60 min, MW01 5 μM, Ku55933 10 μM

T1 sequence (Q13315 whole entry): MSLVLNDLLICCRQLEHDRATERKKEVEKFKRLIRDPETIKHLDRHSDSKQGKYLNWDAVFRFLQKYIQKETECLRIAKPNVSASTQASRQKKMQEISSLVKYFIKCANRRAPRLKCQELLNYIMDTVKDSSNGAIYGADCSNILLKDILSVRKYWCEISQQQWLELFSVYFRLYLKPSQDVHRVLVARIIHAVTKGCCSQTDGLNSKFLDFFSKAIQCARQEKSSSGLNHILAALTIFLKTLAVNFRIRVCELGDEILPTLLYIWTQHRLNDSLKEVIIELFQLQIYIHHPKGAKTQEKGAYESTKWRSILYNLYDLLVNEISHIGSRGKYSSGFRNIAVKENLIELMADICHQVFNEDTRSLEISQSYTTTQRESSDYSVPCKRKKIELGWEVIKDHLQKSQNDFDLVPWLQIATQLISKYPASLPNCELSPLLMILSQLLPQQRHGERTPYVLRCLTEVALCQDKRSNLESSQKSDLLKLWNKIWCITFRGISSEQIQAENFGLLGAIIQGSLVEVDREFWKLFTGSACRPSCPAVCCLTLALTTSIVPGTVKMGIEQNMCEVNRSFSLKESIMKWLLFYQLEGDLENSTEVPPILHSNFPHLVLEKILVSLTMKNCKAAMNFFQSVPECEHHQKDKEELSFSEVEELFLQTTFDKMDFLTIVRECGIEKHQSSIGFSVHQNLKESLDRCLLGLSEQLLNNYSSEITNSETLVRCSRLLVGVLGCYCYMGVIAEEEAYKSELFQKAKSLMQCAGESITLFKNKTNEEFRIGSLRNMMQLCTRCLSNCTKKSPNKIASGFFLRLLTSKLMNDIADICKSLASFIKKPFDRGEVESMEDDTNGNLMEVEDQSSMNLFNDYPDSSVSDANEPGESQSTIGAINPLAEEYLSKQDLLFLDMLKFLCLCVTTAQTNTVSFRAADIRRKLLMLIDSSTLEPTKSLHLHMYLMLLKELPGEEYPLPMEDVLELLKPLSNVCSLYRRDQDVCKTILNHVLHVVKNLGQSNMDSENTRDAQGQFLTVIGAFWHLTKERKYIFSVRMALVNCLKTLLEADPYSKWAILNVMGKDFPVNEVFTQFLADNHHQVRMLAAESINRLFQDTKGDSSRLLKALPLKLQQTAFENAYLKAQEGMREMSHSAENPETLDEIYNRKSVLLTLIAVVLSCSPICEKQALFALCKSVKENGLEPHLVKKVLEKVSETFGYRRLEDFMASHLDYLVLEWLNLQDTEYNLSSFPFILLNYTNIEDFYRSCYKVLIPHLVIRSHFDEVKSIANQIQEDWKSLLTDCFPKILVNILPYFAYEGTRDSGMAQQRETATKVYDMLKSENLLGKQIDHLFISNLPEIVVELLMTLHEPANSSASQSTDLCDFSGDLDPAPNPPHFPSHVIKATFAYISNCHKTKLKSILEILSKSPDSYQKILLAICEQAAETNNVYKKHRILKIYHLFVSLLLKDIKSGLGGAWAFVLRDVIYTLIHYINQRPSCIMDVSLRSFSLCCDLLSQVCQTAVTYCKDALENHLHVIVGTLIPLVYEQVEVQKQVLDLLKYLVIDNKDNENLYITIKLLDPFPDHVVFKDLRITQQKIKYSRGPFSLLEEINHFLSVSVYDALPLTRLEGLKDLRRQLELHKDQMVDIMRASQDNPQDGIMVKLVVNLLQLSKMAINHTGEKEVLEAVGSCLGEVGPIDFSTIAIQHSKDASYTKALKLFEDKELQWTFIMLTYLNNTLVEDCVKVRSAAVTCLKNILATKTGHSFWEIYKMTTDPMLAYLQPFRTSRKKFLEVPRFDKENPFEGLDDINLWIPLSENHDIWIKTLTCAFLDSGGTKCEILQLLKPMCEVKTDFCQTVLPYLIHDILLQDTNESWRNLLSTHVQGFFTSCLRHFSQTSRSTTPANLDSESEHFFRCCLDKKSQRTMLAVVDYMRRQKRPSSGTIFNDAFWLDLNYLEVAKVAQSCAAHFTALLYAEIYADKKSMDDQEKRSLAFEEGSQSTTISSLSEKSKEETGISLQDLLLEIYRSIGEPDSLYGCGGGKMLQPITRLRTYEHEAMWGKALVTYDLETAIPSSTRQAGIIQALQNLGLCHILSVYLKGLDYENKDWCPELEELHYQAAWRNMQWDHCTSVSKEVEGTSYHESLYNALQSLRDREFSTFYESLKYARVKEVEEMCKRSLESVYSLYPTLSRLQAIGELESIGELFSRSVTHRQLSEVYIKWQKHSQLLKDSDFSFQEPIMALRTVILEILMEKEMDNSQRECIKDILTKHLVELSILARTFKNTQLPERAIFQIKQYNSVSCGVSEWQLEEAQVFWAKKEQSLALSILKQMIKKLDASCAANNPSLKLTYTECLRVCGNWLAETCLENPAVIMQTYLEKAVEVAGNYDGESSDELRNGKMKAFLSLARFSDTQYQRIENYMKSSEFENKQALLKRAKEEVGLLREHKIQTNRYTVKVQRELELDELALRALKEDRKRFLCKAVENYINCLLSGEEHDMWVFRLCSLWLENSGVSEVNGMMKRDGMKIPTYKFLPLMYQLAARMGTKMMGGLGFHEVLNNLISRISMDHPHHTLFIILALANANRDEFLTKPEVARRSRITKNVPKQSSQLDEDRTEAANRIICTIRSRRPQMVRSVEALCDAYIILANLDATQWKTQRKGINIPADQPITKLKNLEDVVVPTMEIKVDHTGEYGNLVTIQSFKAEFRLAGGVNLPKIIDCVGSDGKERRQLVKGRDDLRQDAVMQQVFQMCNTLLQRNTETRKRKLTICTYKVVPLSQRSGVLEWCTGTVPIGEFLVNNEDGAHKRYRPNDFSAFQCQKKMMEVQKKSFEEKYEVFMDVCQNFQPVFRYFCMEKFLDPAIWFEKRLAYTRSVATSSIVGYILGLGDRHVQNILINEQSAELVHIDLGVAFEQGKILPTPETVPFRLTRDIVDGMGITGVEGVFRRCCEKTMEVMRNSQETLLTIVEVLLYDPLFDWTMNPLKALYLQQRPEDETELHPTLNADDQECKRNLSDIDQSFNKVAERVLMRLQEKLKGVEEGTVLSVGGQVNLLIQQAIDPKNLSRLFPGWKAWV

## COc1ccc2c(c1OC)c(=O)n1c3ccc(O)cc3c3ccnc2c31 [MW01, 12-hydroxy-6,7-dimethoxy-8H-benzo[c]indolo[3,2,1-ij][1,5]naphthyridin-8-one]
[1]; HEK293, after irradiation
  less viable cells after irradiation: ~17%
[1]; HEK293, non-irradiated
  percentage of viable cells compared to the DMSO control: slightly reduced
[2]
  phosphorylation of the ATM substrate histone H2AX: did not lead to impaired phosphorylation
[3]; [8]
  ATM auto-phosphorylation and phosphorylation of the ATM substrates p53 and KAP1: no effects
  phosphorylation state of p53bp1: mild effects
[3]; conclusion from auto-phosphorylation and substrate phosphorylation
  enzymatic activity of ATM: not affected
[4]
  population of early apoptotic cells: roughly doubled
[4]; 8 h after irradiation
  annexin V staining compared to the irradiated control: significant increase
[5]; 8 h post γ-IR
  PARP1 cleavage: strongly increased
[5]; resting cells
  PARP1 cleavage: slight increase
[6]; Homo sapiens, U2OS, etoposide-induced p65 nuclear translocation, high content screening
  pIC50: 6.34
[6]; IC50 determination assay
  calculated Hill coefficient: −0.9
[6]; etoposide
  percentage in activity change (as recorded in IC50 determination assay): 120%
[6]; etoposide stimulation, U2OS
  concentration sufficient for maximal inhibition of p65 nuclear translocation: 5 µM
[6]; etoposide, U2OS
  inhibition of etoposide-induced p65 nuclear translocation / NF-κB activation: inhibited NF-κB activation in response to etoposide stimulation; also recorded: inhibited the nuclear translocation of p65 upon etoposide stimulation in a concentration dependent manner
[7]
  γH2AX foci per cell: significant increase
